Experimental data from patent publication US8552013B2, “Heterocyclic compounds based on N6-substituted adenine, methods of their preparation, their use for preparation of drugs, cosmetic preparations and growth regulators, pharmaceutical preparations, cosmetic preparations and growth regulators containing these compounds” (USTAV Experimentalni Botaniky Akademie Ved Ceske Republiky, priority 2001, dated 2013).
pEC50, pIC50: −log10 of the molar value.

Assays:
[1] = test system: Human lymphocytes; experiment: Immunosuppressive activity, 3H-thymidine incorporation in concanavalin A activated lymphocytes; type: cell-based; conditions: Lymphocyte, 72 hours, [3H]-TdR, read-out: Human lymphocytes ED50
Source text: One of the most important parameters of specific cellular immunity is proliferative response of lymphocytes to antigens or polyclonal mitogens. The majority of normal mammalian peripheral lymphocytes comprise resting cells. Antigens or nonspecific polyclonal mitogens have the capacity to activate lymphoid cells and this is accompanied by dramatic changes of intracellular metabolism (mitochondrial activity, protein synthesis, nucleic acids synthesis, formation of blastic cells and cellular proliferation). […] Variety of in vitro assays was developed to measure proliferative response of lymphocytes. The most commonly used is ^3H-thymidine incorporation method.
During cell proliferation, DNA has to be replicated before the cell is divided into two daughter cells. This close association between cell doublings and DNA synthesis is very attractive for assessing cell proliferation. If labelled DNA precursors are added to the cell culture, cells that are about to divide incorporate the labelled nucleotide into their DNA. Traditionally, those assays usually involve the use of radiolabelled nucleosides, particularly tritiated thymidine ([^3H]-TdR). The amount of [^3H]-TdR incorporated into the cellular DNA is quantified by liquid scintillation counting.
Human heparinized peripheral blood was obtained from healthy volunteers by cubital vein punction. The blood was diluted in PBS (1:3) and mononuclear cells were separated by centrifugation in Ficoll-Hypaque density gradient (Pharmacia, 1.077 g/ml) at 2200 rpm for 30 minutes. Following centrifugation, lymphocytes were washed in PBS and resuspended in cell culture medium (RMPI 1640, 2 mM glutamine, 100 U/ml penicillin, 100 μg/ml streptomycin, 10% fetal calf serum and sodium bicarbonate).
The cells were diluted at target density of 1,100,000 cells/ml were added by pipette (180 μl) into 96/well microtiter plates. Four-fold dilutions of the intended test concentration were added at time zero in 20 μl aliquots to the microtiter plate wells. Usually, test compound was evaluated at six 4-fold dilutions. In routine testing, the highest well concentration was 266.7 μM. All drug concentrations were examined in duplicates. All wells with exception of unstimulated controls were activated with 50 μl of concanavalin A (25 μg/ml). Incubations of cells with test compounds lasted for 72 hours at 37° C., in 5% CO2 atmosphere and 100% humidity. At the end of incubation period, the cells were assayed by using the [^3H]-TdR:
Cell cultures were incubated with 0.5 μCi (20 μl of stock solution 500 μCi/ml) per well for 6 hours at 37° C. and 5% CO2. The automated cell harvester was used to lyse cells in water and adsorb the DNA onto glass-fiber filters in the format of microtiter plate. The DNA incorporated [^3H]-TdR was retained on the filter while unincorporated material passes through. The filters were dried at room temperature overnight, sealed into a sample bag with 10-12 ml of scintillant. The amount of [^3H]-TdR present in each filter (in cpm) was determined by scintillation counting in a Betaplate liquid scintillation counter. The effective dose of immunosuppressant (ED) was calculated using the following equation: ED=(CCPMdrug exposed well/mean CCPMcontrol wells)×100%. The ED50 value, the drug concentration inhibiting proliferation of 50% of lymphocytes, was calculated from the obtained dose response curves.

[2] = test system: human diploid fibroblasts (HCA cells); experiment: Senescence, beta-galactosidase staining of human diploid fibroblasts; type: cell-based; conditions: for SENESCENT CELLS (%) HCA25: passage 25; for SENESCENT CELLS (%) HCA45: passage 45; for SENESCENT CELLS (%) HCA80: passage 80
Experimental: In this example, human diploid fibroblasts (HCA cells of various passage levels: passage 25—designated HCA25; passage 45—designated HCA45; passage 80—designated HCA80) were stained for β-galactosidase activity. The medium used for cell cultivation was removed, the cells were washed twice in […], and fixed in 2-3 ml of fixing solution comprised of a 2% formaldehyde and 0.2% glutaraldehyde in PBS. The cells were incubated at room temperature for 5 minutes, then washed twice with PBS. The cells were subsequently incubated at 37° C. (without CO2) for 1 to 16 hours in 2-3 ml of a solution comprising potassium ferricyanide (5 mM), potassium ferrocyanide (5 mM), MgCl2 (2 mM), X-gal (5-bromo-4-chloro-3-indolyl-β-D-galactopyranoside) (1 mg/ml), in citric/phosphate buffer, pH 6.0). […] In this experiment, senescent cells, but not other cells were stained blue due to the action of β-galactosidase on the substrate (FIG. 4).

[3] = test system: B16-F0 melanoma; experiment: Calcein AM cytotoxicity, B16-F0; type: cell-based; conditions: Mus musculus, B16F0, 72 h, read-out: IC 50, B16-F0
Source text: (§1) One of the parameters used, as the basis for cytotoxicity assays, is the metabolic activity of viable cells. For example, a microtiter assay, which uses the Calcein AM, is now widely used to quantitate cell proliferation and cytotoxicity. For instance, this assay is used in drug screening programs and in chemosensitivity testing. Because only metabolically active cells cleave Calcein AM, these assays detect viable cells exclusively. The quantity of reduced Calcein AM corresponds to the number of vital cells in the culture.
(§2) Human T-lymphoblastic leukemia cell line CEM; promyelocytic HL-60 and monocytic U937 leukemias; breast carcinoma cell lines MCF-7, BT549, MDA-MB-231; glioblastoma U87MG cells; cervical carcinoma cells HELA; sarcoma cells U2OS and Saos2; hepatocellular carcinoma HepG2; mouse fibroblasts NIH3T3; mouse immortalized bone marrow macrophages B2.4 and B10A.4; P388D1 and L1210 leukemia; B16 and B16F10 melanomas were used for routine screening of compounds. The cells were maintained in Nunc/Corning 80 cm^2 plastic tissue culture flasks and cultured in cell culture medium (DMEM with 5 g/l glucose, 2 mM glutamine, 100 U/ml penicillin, 100 μg/ml streptomycin, 10% fetal calf serum and sodium bicarbonate).
(§3) The cell suspensions that were prepared and diluted according to the particular cell type and the expected target cell density (2.500-30.000 cells per well based on cell growth characteristics) were added by pipette (80 μl) into 96/well microtiter plates. Inoculates were allowed a pre-incubation period of 24 hours at 37° C. and 5% CO2 for stabilisation. Four-fold dilutions of the intended test concentration were added at time zero in 20 μl aliquots to the microtiter plate wells. Usually, test compound was evaluated at six 4-fold dilutions. In routine testing, the highest well concentration was 266.7 μM, but it can be the matter of change dependent on the agent. All drug concentrations were examined in duplicates. Incubations of cells with the test compounds lasted for 72 hours at 37° C., in 5% CO2 atmosphere and 100% humidity. At the end of incubation period, the cells were assayed by using the Calcein AM. Ten microliters of the stock solution were pipetted into each well and incubated further for 1 hours. Fluorescence (FD) was measured with the Labsystem FIA Reader Fluoroscan Ascent (UK). The tumour cell survival (GI50) was calculated using the following equitation: TCS═(FDdrug exposed well/mean FDcontrol wells)×100%. The GI50 value, the drug concentration lethal to 50% of the tumour cells, was calculated from the obtained dose response curves (FIG. 1).

[4] = test system: Triticum aestivum cv. Hereward leaf tips; experiment: Retention of chlorophyll in excised wheat leaf tips; type: in vivo; conditions: chlorophyll retention at the concentration with highest activity
Summary of the method: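 Tips of first leaves from 7-day wheat (cv. Hereward) seedlings kept on compound solutions (10^−8 to 10^−4 M, from DMSO stock) for 96 h in the dark at 25 °C. Chlorophyll extracted in 80% ethanol at 80 °C and read at 665 nm. Activity at the best concentration expressed relative to 10^−4 M BAP (100%), five replicates.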

[5] = test system: HOS; experiment: Calcein AM cytotoxicity, HOS; type: cell-based; conditions: Homo sapiens, HOS, 72 h
Source text: as §1, §2, §3

[6] = test system: tobacco callus Nicotiana tabacum L. cv. Wisconsin 38; experiment: Cytokinin-dependent tobacco callus growth; type: cell-based; conditions: fresh callus weight at the concentration with highest activity
[7] = test system: Amaranthus caudatus cotyledon/hypocotyl explants; experiment: Amaranthus bioassay, betacyanin content; type: in vivo; conditions: betacyanin content at the concentration with highest activity
[8] = test system: promyelocytic HL-60 leukemia; experiment: Calcein AM cytotoxicity, HL60; type: cell-based, human; conditions: Homo sapiens, HL-60, 72 h, read-out: IC 50, HL60
Source text: as §1
(§4) The cells were maintained in Nunc/Corning 80 cm^2 plastic tissue culture flasks and cultured in cell culture medium (DMEM with 5 g/l glucose, 2 mM glutamine, 100 U/ml penicillin, 100 μg/ml streptomycin, 10% fetal calf serum and sodium bicarbonate).
as §3, with “In routine testing, the highest well concentration was 266.7 μM, but it can be the matter of change dependent on the agent.” left out, “(UK).” for “(UK). The tumour cell survival (GI50) was calculated using the following equitation: TCS═(FDdrug exposed well/mean FDcontrol wells)×100%. The GI50 value, the drug concentration lethal to 50% of the tumour cells, was calculated from the obtained dose response curves (FIG. 1).”

[9] = test system: T-lymphoblastic leukemia cell line CEM; experiment: Calcein AM cytotoxicity, CEM; type: cell-based, human
Source text: as §1, §4
as §3, with “In routine testing, the highest well concentration was 266.7 μM, but it can be the matter of change dependent on the agent.” left out, “(UK).” for “(UK). The tumour cell survival (GI50) was calculated using the following equitation: TCS═(FDdrug exposed well/mean FDcontrol wells)×100%. The GI50 value, the drug concentration lethal to 50% of the tumour cells, was calculated from the obtained dose response curves (FIG. 1).”

[10] = test system: K-562; experiment: Calcein AM cytotoxicity, K-562; type: cell-based; conditions: Homo sapiens, K562, 72 h, read-out: IC 50, K-562
Source text: as §1, §4
as §3, with “In routine testing, the highest well concentration was 266.7 μM, but it can be the matter of change dependent on the agent.” left out, “(UK).” for “(UK). The tumour cell survival (GI50) was calculated using the following equitation: TCS═(FDdrug exposed well/mean FDcontrol wells)×100%. The GI50 value, the drug concentration lethal to 50% of the tumour cells, was calculated from the obtained dose response curves (FIG. 1).”

[11] = test system: breast carcinoma cell line MCF-7; experiment: Calcein AM cytotoxicity, MCF7; type: cell-based, human; conditions: Homo sapiens, MCF7, 72 h, read-out: IC 50, MCF7
Source text: as §1, §4
as §3, with “In routine testing, the highest well concentration was 266.7 μM, but it can be the matter of change dependent on the agent.” left out, “(UK).” for “(UK). The tumour cell survival (GI50) was calculated using the following equitation: TCS═(FDdrug exposed well/mean FDcontrol wells)×100%. The GI50 value, the drug concentration lethal to 50% of the tumour cells, was calculated from the obtained dose response curves (FIG. 1).”

Structure (SMILES)	pEC50 [1]	SENESCENT CELLS (%) HCA25 [2]	SENESCENT CELLS (%) HCA45 [2]	SENESCENT CELLS (%) HCA80 [2]	pIC50 [3]	Activity (%) [10^−4 mol · l^−1 BAP = 100%] [4]	Activity (%) [10^−4 mol · l^−1 BAP = 100%] [6]	activity (%) [10^−5 mol · l^−1 BAP = 100%] [7]	further results
Clc1cccc(Nc2ncnc3nc[nH]c23)c1 [3-chloroanilino, 6-(3-chloroanilino)purine]	5.14	4%	5%	25%					
Nc1cc(Cl)cc(Nc2ncnc3nc[nH]c23)c1 [3-chloro-5-aminoanilino, 6-(3-chloro-5-aminoanilino)purine]	4.91	3%	6%	24%					
Nc1ccc(Nc2ncnc3nc[nH]c23)cc1Cl [3-chloro-4-aminoanilino, 6-(3-chloro-4-aminoanilino)purine]	4.92	5%	5%	24%					
COc1ccc(CNc2ncnc3nc[nH]c23)cc1 [6-(4-methoxybenzylamino)purine]					4.07	79 (±6) %	39 (±17) %	23 (±2) %	pIC50 [5]: < 3.78
Fc1ccc(CNc2ncnc3nc[nH]c23)cc1Cl [6-(3-chloro-4-fluorobenzylamino)purine]					< 3.78	141 (±20) %	90 (±1) %	91 (±7) %	pIC50 [8]: < 3.78; pIC50 ([9]; 72 hours, listed as 3Cl4F BAP): 4.02; pIC50 ([9]; Homo sapiens, 72 h): 3.87; pIC50 [10]: < 3.78; pIC50 [11]: < 3.78
Nc1cc(Nc2ncnc3nc[nH]c23)ccc1Cl [3-amino-4-chloroanilino, 6-(3-amino-4-chloroanilino)purine]	5.08	4%	6%	22%					
COc1cc(OC)c(CNc2ncnc3nc[nH]c23)c(OC)c1 [6-(2,4,6-trimethoxybenzylamino)purine]					< 3.78	6 (±4) %	13 (±6) %	3 (±3) %	pIC50 [8]: 3.81; pIC50 ([9]; 72 hours, listed as 2,4,6triMeO BAP): 3.98; pIC50 ([9]; Homo sapiens, 72 h): 4.20; pIC50 [10]: < 3.78; pIC50 [11]: < 3.78

Further lines, with some results ahead:

pEC50 [1]	Structure (SMILES)	SENESCENT CELLS (%) HCA25 [2]	SENESCENT CELLS (%) HCA45 [2]	SENESCENT CELLS (%) HCA80 [2]	pIC50 [3]	Activity (%) [10^−4 mol · l^−1 BAP = 100%] [4]	Activity (%) [10^−4 mol · l^−1 BAP = 100%] [6]	activity (%) [10^−5 mol · l^−1 BAP = 100%] [7]	further results
5.21	Clc1ccc(Nc2ncnc3nc[nH]c23)cc1 [4-chloroanilino, 6-(4-chloroanilino)purine]	5%	5%	26%					
5.33	Brc1ccc(Nc2ncnc3nc[nH]c23)cc1 [4-bromoanilino, 6-(4-bromoanilino)purine]	5%	3%	25%					
5.74	COc1ccc(CNc2ncnc3nc[nH]c23)c(O)c1 [2-hydroxy-4-methoxybenzylamino, 6-(2-hydroxy-4-methoxybenzylamino)purine]								
